One test deals with T1, PIM-1 (Homo sapiens, UniProt P11309).
T1 construct: purchased Upstate 14-573
Kind of test: Inhibition of kinase PIM-1 (Kinase-Glo). In kind it is biochemical. Particulars: PIM-1 0.625 μg/ml, 10 μM ATP, forty minutes at 30° C. How it is done: Protein PIM-1 (Upstate #14-573 batch 25864U) is incubated at a concentration of 0.625 μg/ml in a buffer containing 8 mM of MOPS/NaOH pH7, 0.2 mM EDTA, 5 mM MgAc (Sigma #229768), 0.01% Triton Tx100, in the presence of 70 μM of peptide substrate S6 Kinase/Rsk2 (Upstate #12-243), and 10 μM of ATP.
The dilution buffer for PIM-1 is as follows: 20 mM MOPS/NaOH pH7, 1 mM EDTA, 5% glycerol, 0.01% Brij35, 0.1% 2-mercapto, 1 mg/ml BSA
The compound to be tested is first added to the enzyme to give a reaction volume of 50 μl. The dilution of the compounds of the invention is distributed so as to obtain a scale of final concentrations between 10 nM and 30 μM.
After incubation of the reaction mixture for forty minutes at 30° C., the level of ATP that remains is assayed using the Kinase-Glo Luminescent Kinase Assay (Promega #V6712) according to the conditions recommended by the supplier. The luminescence induced is read in a plate reader (Envision-Perkin Elmer).

The target in the next test is T2, RET (Homo sapiens, UniProt P07949).
T2 construct: purchased Upstate 14-570MG
Nature of the test: Inhibition of RET kinase activity, recombinant RET method (Kinase-Glo). The class given is biochemical. Particulars: RET 2 μg/ml, poly-EY4 substrate, 20 μM ATP, two hours at 30° C. In short, it runs like this: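 Recombinant RET at 2 μg/ml in 20 mM MOPS/NaOH pH 7.0, 1 mM EDTA, 5% glycerol, 0.01% Brij35, 0.1% 2-mercaptoethanol, 1 mg/ml BSA; compounds 10 nM–30 μM final.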
(Kinase-Glo measures the ATP left after a reaction by luminescence.)

pIC50: −log10 of the molar value. Structures can show the parent of a compound that is named as a salt.

T2 sequence (P07949 29-1114): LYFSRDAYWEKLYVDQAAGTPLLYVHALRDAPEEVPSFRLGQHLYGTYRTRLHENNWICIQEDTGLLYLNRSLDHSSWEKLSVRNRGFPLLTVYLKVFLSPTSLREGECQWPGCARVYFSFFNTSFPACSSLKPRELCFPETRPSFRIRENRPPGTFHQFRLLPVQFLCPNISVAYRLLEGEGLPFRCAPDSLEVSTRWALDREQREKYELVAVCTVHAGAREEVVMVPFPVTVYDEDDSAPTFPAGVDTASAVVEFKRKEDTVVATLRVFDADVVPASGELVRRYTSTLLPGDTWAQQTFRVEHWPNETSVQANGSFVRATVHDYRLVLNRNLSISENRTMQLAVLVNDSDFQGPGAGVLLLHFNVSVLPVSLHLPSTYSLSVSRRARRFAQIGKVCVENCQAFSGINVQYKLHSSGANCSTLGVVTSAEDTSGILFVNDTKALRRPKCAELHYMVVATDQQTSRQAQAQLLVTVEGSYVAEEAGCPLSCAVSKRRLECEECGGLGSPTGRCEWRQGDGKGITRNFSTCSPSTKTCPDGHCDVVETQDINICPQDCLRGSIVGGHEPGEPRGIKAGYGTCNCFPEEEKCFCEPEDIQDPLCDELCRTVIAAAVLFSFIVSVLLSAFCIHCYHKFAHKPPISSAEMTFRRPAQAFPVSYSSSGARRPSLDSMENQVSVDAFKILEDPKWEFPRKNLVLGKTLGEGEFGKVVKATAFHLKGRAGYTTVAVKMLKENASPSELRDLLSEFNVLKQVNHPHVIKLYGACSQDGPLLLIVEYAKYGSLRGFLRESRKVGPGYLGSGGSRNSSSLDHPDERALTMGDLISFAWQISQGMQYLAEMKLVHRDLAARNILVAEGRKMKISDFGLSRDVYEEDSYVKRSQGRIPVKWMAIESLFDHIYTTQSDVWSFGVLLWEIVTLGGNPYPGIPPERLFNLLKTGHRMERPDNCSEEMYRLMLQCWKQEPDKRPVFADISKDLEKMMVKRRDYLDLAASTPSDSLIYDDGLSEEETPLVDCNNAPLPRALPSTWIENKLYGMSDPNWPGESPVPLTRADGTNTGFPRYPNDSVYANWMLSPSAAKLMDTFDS
T1 sequence (P11309 whole entry): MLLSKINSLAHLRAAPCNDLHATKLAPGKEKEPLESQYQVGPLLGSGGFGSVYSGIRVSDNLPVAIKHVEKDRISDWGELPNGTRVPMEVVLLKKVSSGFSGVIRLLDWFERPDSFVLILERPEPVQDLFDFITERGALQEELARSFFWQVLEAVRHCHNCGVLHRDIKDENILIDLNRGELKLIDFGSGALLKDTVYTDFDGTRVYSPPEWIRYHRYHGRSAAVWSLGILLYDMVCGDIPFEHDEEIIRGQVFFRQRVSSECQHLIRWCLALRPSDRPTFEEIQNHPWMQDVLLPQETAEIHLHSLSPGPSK

`CCOC(=O)c1c[nH]c2c(=O)[nH]c3ccc(-c4ccc(N)cc4)cc3c12` [Compound 244, 8-(4-Aminophenyl)-4-oxo-4,5-dihydro-3H-pyrrolo[2,3-c]quinoline-1-ethyl carboxylate]: the pIC50 against PIM-1 and on RET was 6.00 to 7.00 each time. Take `CCOC(=O)c1c[nH]c2c(=O)[nH]c3ccc(SCc4ccccc4)cc3c12` [Compound 222, 8-Benzylsulfanyl-4-oxo-4,5-dihydro-3H-pyrrolo[2,3-c]quinoline-1-ethyl carboxylate]: the results for the pIC50 against PIM-1 and at RET were 5.00 to 6.00 and 6.00 to 7.00, respectively.

As to `CCOC(=O)c1c[nH]c2c(=O)[nH]c3ccc(S(=O)(=O)NCC4CCNCC4)cc3c12` [Compound 121, 4-Oxo-8-[(piperidin-4-ylmethyl)-sulfamoyl]-4,5-dihydro-3H-pyrrolo[2,3-c]quinoline-1-ethyl carboxylate], the negative-log IC50 (pIC50) on PIM-1 and on RET was 5.00 to 6.00 each time.

`CCOC(=O)c1c[nH]c2c(=O)[nH]c3ccc(NC)cc3c12` [Compound 63, 8-Methylamino-4-oxo-4,5-dihydro-3H-pyrrolo[2,3-c]quinoline-1-ethyl carboxylate hydrochloride]: the pIC50 (as a rule, the negative decadic logarithm of the IC50, by convention in mol/L) against PIM-1 was 4.00 to 5.00; on RET, 5.00 to 6.00. Regarding `CCOC(=O)c1c[nH]c2c(=O)[nH]c3ccc(-c4ccnc(N(C)C)n4)cc3c12` [Compound 262, 8-(2-Dimethylamino-pyrimidin-4-yl)-4-oxo-4,5-dihydro-3H-pyrrolo[2,3-c]quinoline-1-ethyl carboxylate], the pIC50 at PIM-1 and at RET was 5.00 to 6.00 throughout. For `CCOC(=O)c1c[nH]c2c(=O)[nH]c3ccc(N)cc3c12` [Compound 64, 8-Amino-4-oxo-4,5-dihydro-3H-pyrrolo[2,3-c]quinoline-1-ethyl carboxylate], the negative-log IC50 (pIC50) against PIM-1 is 4.00 to 5.00; on RET, 5.00 to 6.00. The matching figures for `CCOC(=O)c1c[nH]c2c(=O)[nH]c3ccc(-c4cccc(CNC)c4)cc3c12` [Compound 241, 8-(3-Methylaminomethyl-phenyl)-4-oxo-4,5-dihydro-3H-pyrrolo[2,3-c]quinoline-1-ethyl carboxylate]: 5.00 to 6.00 and 6.00 to 7.00.

In the case of `CCOC(=O)c1c[nH]c2c(=O)[nH]c3ccc(/C=C/c4ccccc4)cc3c12` [Compound 70, 4-Oxo-8-styryl-4,5-dihydro-3H-pyrrolo[2,3-c]quinoline-1-ethyl carboxylate], the negative-log IC50 (pIC50) on PIM-1 and on RET was 5.00 to 6.00 throughout.

In the case of `CCOC(=O)c1c[nH]c2c(=O)[nH]c3ccc(-c4ccnc(NC)n4)cc3c12` [Compound 263, 8-(2-Methylamino-pyrimidin-4-yl)-4-oxo-4,5-dihydro-3H-pyrrolo[2,3-c]quinoline-1-ethyl carboxylate formate], the pIC50 was 5.00 to 6.00 against PIM-1 and 6.00 to 7.00 on RET. With `CCOC(=O)c1c[nH]c2c(=O)[nH]c3ccc(-c4ccnc(N)n4)cc3c12` [Compound 261, 8-(2-Amino-pyrimidin-4-yl)-4-oxo-4,5-dihydro-3H-pyrrolo[2,3-c]quinoline-1-ethyl carboxylate], the negative logarithm of the IC50 (pIC50) against PIM-1 is 4.00 to 5.00; at RET, 6.00 to 7.00. Consider `CCOC(=O)c1c[nH]c2c(=O)[nH]c3ccc(-c4csc(N)n4)cc3c12` [Compound 270, 8-(2-Amino-thiazol-4-yl)-4-oxo-4,5-dihydro-3H-pyrrolo[2,3-c]quinoline-1-ethyl carboxylate], for which the pIC50 is 4.00 to 5.00 on PIM-1 and 6.00 to 7.00 at RET. In the case of `CCCOC(=O)c1c[nH]c2c(=O)[nH]c3ccc(S(=O)(=O)N(C)CCN(C)C)cc3c12` [Compound 136, 8-[(2-Dimethylamino-ethyl)-methyl-sulfamoyl]-4-oxo-4,5-dihydro-3H-pyrrolo[2,3-c]quinoline-1-propyl carboxylate], the negative-log IC50 (pIC50) at RET was more than 7.00. As to `CN(C(=O)OC(C)(C)C)C1CCN(S(=O)(=O)c2ccc3[nH]c(=O)c4[nH]cc(C(=O)O)c4c3c2)C1` (centres unmarked) [Compound 170, 8-[3-(tert-Butoxycarbonyl-methyl-amino)-pyrrolidine-1-sulfonyl]-4-oxo-4,5-dihydro-3H-pyrrolo[2,3-c]quinoline-1-carboxylic acid], the negative logarithm of the IC50 (pIC50) on RET is 4.00 to 5.00. For the molecule `CCOC(=O)c1c[nH]c2c(=O)[nH]c3ccc(-c4ccc(S(C)(=O)=O)cc4)cc3c12` [Compound 245, 8-(4-Methanesulfonyl-phenyl)-4-oxo-4,5-dihydro-3H-pyrrolo[2,3-c]quinoline-1-ethyl carboxylate], the pIC50 at RET was 5.00 to 6.00.

On to `CCCOC(=O)c1c[nH]c2c(=O)[nH]c3ccc(S(=O)(=O)N(C[C@H]4CCCN4)C4CC4)cc3c12` [Compound 148, (R)-8-(Cyclopropyl-pyrrolidin-2-ylmethyl-sulfamoyl)-4-oxo-4,5-dihydro-3H-pyrrolo[2,3-c]quinoline-1-propyl carboxylate hydrochloride], for which the negative logarithm of the IC50 (pIC50) on RET is 6.00 to 7.00. Consider `CCOC(=O)c1c[nH]c2c(=O)[nH]c3ccc(Sc4cccc(N)c4)cc3c12` [Compound 224, 8-(3-Aminophenylsulfanyl)-4-oxo-4,5-dihydro-3H-pyrrolo[2,3-c]quinoline-1-ethyl carboxylate], for which the pIC50 on RET is 6.00 to 7.00. Consider `CCOC(=O)c1c[nH]c2c(=O)[nH]c3ccc(-c4csc(NNc5ccccc5)n4)cc3c12` [Compound 280, 4-Oxo-8-[2-(N′-phenyl-hydrazino)-thiazol-4-yl]-4,5-dihydro-3H-pyrrolo[2,3-c]quinoline-1-ethyl carboxylate], for which the negative logarithm of the IC50 (pIC50) at RET was 5.00 to 6.00. `CCOC(=O)CCNS(=O)(=O)c1ccc2[nH]c(=O)c3[nH]cc(C(=O)OCC)c3c2c1` [Compound 29, 8-(2-Ethoxycarbonyl-ethylsulfamoyl)-4-oxo-4,5-dihydro-3H-pyrrolo[2,3-c]quinoline-1-ethyl carboxylate]: on RET, the pIC50 is 5.00 to 6.00.

In the case of `CN(c1ccc(F)cc1)S(=O)(=O)c1ccc2[nH]c(=O)c3[nH]cc(C(=O)OCCN)c3c2c1` [Compound 105, 8-[(4-Fluorophenyl)-methyl-sulfamoyl]-4-oxo-4,5-dihydro-3H-pyrrolo[2,3-c]quinoline-1-2-aminoethyl trifluoroacetate carboxylate], on RET, the negative-log IC50 (pIC50) was 4.00 to 5.00. With `CCOC(=O)c1c[nH]c2c(=O)[nH]c3ccc(S(=O)(=O)Nc4ccccc4OC)cc3c12` [Compound 7, 8-(2-Methoxy-phenylsulfamoyl)-4-oxo-4,5-dihydro-3H-pyrrolo[2,3-c]quinoline-1-ethyl carboxylate], the pIC50 at RET was 6.00 to 7.00. As to `CCOC(=O)c1c[nH]c2c(=O)[nH]c3ccc(N(C)C)cc3c12` [Compound 62, 8-Dimethylamino-4-oxo-4,5-dihydro-3H-pyrrolo[2,3-c]quinoline-1-ethyl carboxylate], the pIC50 on RET is 5.00 to 6.00. With `CN(c1ccc(F)cc1)S(=O)(=O)c1ccc2[nH]c(=O)c3[nH]cc(C(=O)OCCO)c3c2c1` [Compound 104, 8-[(4-Fluorophenyl)-methyl-sulfamoyl]-4-oxo-4,5-dihydro-3H-pyrrolo[2,3-c]quinoline-1-2-hydroxyethyl carboxylate], at RET, the negative logarithm of the IC50 (pIC50) is 5.00 to 6.00.

Regarding `CCOC(=O)c1c[nH]c2c(=O)[nH]c3ccc(-c4cccc(C#N)c4)cc3c12` [Compound 239, 8-(3-Cyano-phenyl)-4-oxo-4,5-dihydro-3H-pyrrolo[2,3-c]quinoline-1-ethyl carboxylate], the pIC50 on RET was 6.00 to 7.00. The same measure, in the same setting: for `COC(=O)c1c[nH]c2c(=O)[nH]c3ccccc3c12` [Compound 73, 4-Oxo-4,5-dihydro-3H-pyrrolo[2,3-c]quinoline-1-methyl carboxylate] the value was 5.00 to 6.00.
